# From patent US20200345746A1, “Oxazine Derivative for Use in the Prevention of Alzheimer's Disease in at Risk Patents” (Novartis AG, priority 2016, published 2020)
# Columns and labels:
# GFAP positive astrocytes = test: Activated astrocytes in APP23 mice (GFAP positive area); format: in vivo, mouse; conditions: for Distal GFAP+ area / Proximal GFAP+ area / Total GFAP+ area / non-plaque associated GFAP+ area / plaque-associated GFAP+ area: normalized to total area (100 * mean ± SEM)
# From the text: Amyloid plaques were stained using a rabbit anti-Aβ primary antibody which recognizes the C-terminal part of the amyloid peptide (the antibody was raised as described in Schrader-Fischer G, Paganetti P A, 1996; Schrader-Fischer G et al., 1997). Activated astrocytes were detected using a commercial rabbit anti-GFAP (reference Z0334 from Dako Schweiz GmbH, Baar, Switzerland).
# All study animals were used and brain tissue sections of 3 micrometers were freshly cut and collected on SuperFrost+ slides. The tissues sections were de-paraffinized and rehydrated under solvent-free conditions (EZprep solution) followed by antigen retrieval (demasking) performed by heat retrieval cycles for 32 min in an EDTA based buffer (CC1 solution). Subsequently, slides were blocked for 4 min using the DISCOVERY Inhibitor (reference 07017944001 (Roche)). The primary antibody diluted at 1/20,000 in antibody diluent was manually added on tissue sections and incubated for 1h at room temperature. A short post-fixation (glutaraldehyde at 0.05%) was performed before applying the multimer UltraMap-anti Rabbit HRP ready to use antibody (reference 05269717001) for 16 min.
# Detection was performed using the DISCOVERY FITC® following the manufacturer's recommendations. Slides were then heat denaturated at 92° C. for 20 min before a manual application of the second primary antibody (anti-GFAP diluted at 1/2,000) and incubated for 1 h. UltraMap-anti-Rabbit HRP antibody was used again for 20 min to detect GFAP in combination with the DISCOVERY Rhodamine kit (reference 07259883001).
# The slides were washed and mounted using Prolong® Gold antifade reagent (reference P36931, ThermoFisher, Switzerland) and further scanned with the Hamamatsu slide scanner instrument (NanoZoomer 2.0 HT, scanning software NDP-Scan Vers. 2.5, Hamamatsu Photonics France, Swiss Office, Solothurn, Switzerland) at the 40× objective. The scanning settings were as follows: the exposure time with the DAPI filter was set at 57 ms as well as for the FITC filter. The exposure time for the TRITC filter (detection of Rhodamine) was set at 14.2 ms.
# For the beta-amyloid plaque and neuroinflammation analysis, the following sequence of steps was performed: • Slides were scanned with Hamamatsu Nanozoomer at 40× magnification. For each fluorescence labelling (DAPI, FITC and TRITC), a separate image was created • Manually outline ROIs (regions of interest) for defining cortex in brain sections for Aβ plaque assessment on the green FITC channel image, then use the resulting outline also for the other two channel images (copy resulting xml files) • Run the in-house developed ImageScope (V12.1.0.5029, Aperio Inc., USA) plug-in for creation and export of *.tif image tiles (at 10× magnification) for each of the 3 fluorescence channels
# Image Batch Processing: • Obtain the combined true color image (DAPI, FITC, TRITC) for each section through accessing each individual fluorescence channel image • Segmentation of valid sample (within outlined ROI) from black unstained background • Apply adaptive thresholding technique for segmentation of objects in green channel image
# (FITC-labeled Aβ plaques) • Separation of touching objects for correct subsequent individual object analysis after elimination of too small debris showing signal in the green (FITC) channel • Segmentation of TRITC-labeled objects in red channel (specific for GFAP or Iba1 staining indicating astrocytes or microglia) through morphological tophat transformation and thresholding • Feature based object classification […]
# Aβ42 = test: 3-month dose-ranging study: Aβ42 in CSF; format: in vivo, human; conditions: for Aβ42 % change from baseline, Mean (SD) / Aβ42 % change from baseline, Median: CSF, 3 months
# From the text: This study is listed in ClinicalTrials.gov under the NCT02576639 Identifier code.
# The primary purpose of this study was to expand on previous safety and tolerability data obtained over 2-week and 4-week duration in the first in human study and thereby allow initiation of future long-term efficacy trials in subjects at risk of AD. In addition, data relevant for Pharmacokinetic/Pharmacodynamic modeling was obtained in order to support dose selection decisions for future efficacy studies.
# In the completed first-in-human and 3-month dose-ranging safety and tolerability clinical studies described in Examples 5 and 6, Aβ concentrations in CSF were obtained by means of lumbar punctures before the first dose (baseline) and respectively after 2 weeks and 3 months of multiple dosing. ApoE4 genotype also was obtained in the subjects who consented. The percent change from baseline in Aβ40 and Aβ42 concentrations was calculated in subjects who took the study treatment and had no major protocol deviation with potential impact on the evaluation of the pharmacodynamic effect. Tables 18 to 21 below provide summary statistics of the percent change from baseline by treatment group and ApoE genotype (E4 heterozygotes versus E4 non-carriers). Only one subject with CSF data was E4 homozygote (from the 3-month dose-ranging safety and tolerability study).
compound,measurement,setting,value
"C[C@@]1(c2nc(NC(=O)c3ncc(C(F)(F)F)cc3Cl)ccc2F)CO[C@@](C)(C(F)(F)F)C(N)=N1 [Compound 1, N-(6-((3R,6R)-5-amino-3,6-dimethyl-6-(trifluoromethyl)-3,6-dihydro-2H-1,4-oxazin-3-yl)-5-fluoropyridin-2-yl)-3-chloro-5-(trifluoromethyl)picolinamide]",Distal GFAP+ area,"GFAP positive astrocytes; APP23, 0.03 g/kg food",12.16 ± 1.52
same,Proximal GFAP+ area,"GFAP positive astrocytes; APP23, 0.03 g/kg food",4.11 ± 0.86
same,Total GFAP+ area,"GFAP positive astrocytes; APP23, 0.03 g/kg food",18.56 ± 2.59
same,non-plaque associated GFAP+ area,"GFAP positive astrocytes; APP23, 0.03 g/kg food",16.27 ± 2.19
same,plaque-associated GFAP+ area,"GFAP positive astrocytes; APP23, 0.03 g/kg food",2.29 ± 0.47
same,"Distal GFAP+ area, change vs vehicle","GFAP positive astrocytes; APP23, 0.03 g/kg vs vehicle",−8.9%
same,"Proximal GFAP+ area, change vs vehicle","GFAP positive astrocytes; APP23, 0.03 g/kg vs vehicle",−28.0%
same,"Total GFAP+ area, change vs vehicle","GFAP positive astrocytes; APP23, 0.03 g/kg vs vehicle",−16.9%
same,"non-plaque associated GFAP+ area, change vs vehicle","GFAP positive astrocytes; APP23, 0.03 g/kg vs vehicle",−14.6%
same,"plaque-associated GFAP+ area, change vs vehicle","GFAP positive astrocytes; APP23, 0.03 g/kg vs vehicle",−29.8%
same,Distal GFAP+ area,"GFAP positive astrocytes; APP23, 0.3 g/kg food",9.72 ± 1.65
same,Proximal GFAP+ area,"GFAP positive astrocytes; APP23, 0.3 g/kg food",1.91 ± 0.51
same,Total GFAP+ area,"GFAP positive astrocytes; APP23, 0.3 g/kg food",12.79 ± 2.33
same,non-plaque associated GFAP+ area,"GFAP positive astrocytes; APP23, 0.3 g/kg food",11.63 ± 2.06
same,plaque-associated GFAP+ area,"GFAP positive astrocytes; APP23, 0.3 g/kg food",1.16 ± 0.32
same,"Distal GFAP+ area, change vs vehicle","GFAP positive astrocytes; APP23, 0.3 g/kg vs vehicle",−27.2%
same,"Proximal GFAP+ area, change vs vehicle","GFAP positive astrocytes; APP23, 0.3 g/kg vs vehicle",−66.6%
same,"Total GFAP+ area, change vs vehicle","GFAP positive astrocytes; APP23, 0.3 g/kg vs vehicle",−42.7%
same,"non-plaque associated GFAP+ area, change vs vehicle","GFAP positive astrocytes; APP23, 0.3 g/kg vs vehicle",−39.0%
same,"plaque-associated GFAP+ area, change vs vehicle","GFAP positive astrocytes; APP23, 0.3 g/kg vs vehicle",−64.3%
same,"Aβ42 % change from baseline, Mean (SD)","Aβ42; 2 mg, E4 heterozygotes",−23 (9) %
same,"Aβ42 % change from baseline, Median","Aβ42; 2 mg, E4 heterozygotes",−23%
same,"Aβ42 % change from baseline, Mean (SD)","Aβ42; 2 mg, E4 non-carriers",−24 (9) %
same,"Aβ42 % change from baseline, Median","Aβ42; 2 mg, E4 non-carriers",−21%
same,"Aβ42 % change from baseline, Mean (SD)","Aβ42; 10 mg, E4 heterozygotes",−66 (7) %
same,"Aβ42 % change from baseline, Median","Aβ42; 10 mg, E4 heterozygotes",−63%
same,"Aβ42 % change from baseline, Mean (SD)","Aβ42; 10 mg, E4 non-carriers",−65 (5) %
same,"Aβ42 % change from baseline, Median","Aβ42; 10 mg, E4 non-carriers",−66%
same,"Aβ42 % change from baseline, Mean (SD)","Aβ42; 35 mg, E4 heterozygotes",−83 (5) %
same,"Aβ42 % change from baseline, Median","Aβ42; 35 mg, E4 heterozygotes",−85%
same,"Aβ42 % change from baseline, Mean (SD)","Aβ42; 35 mg, E4 non-carriers",−81 (6) %
same,"Aβ42 % change from baseline, Median","Aβ42; 35 mg, E4 non-carriers",−83%
same,"Aβ42 % change from baseline, Mean (SD)","Aβ42; 85 mg, E4 heterozygotes",−88 (2) %
same,"Aβ42 % change from baseline, Median","Aβ42; 85 mg, E4 heterozygotes",−88%
same,"Aβ42 % change from baseline, Mean (SD)","Aβ42; 85 mg, E4 non-carriers",−90 (2) %
same,"Aβ42 % change from baseline, Median","Aβ42; 85 mg, E4 non-carriers",−90%
same,"Aβ42 in CSF percent change from baseline, Difference (90% CI) Cmpd 1-Placebo","Aβ42; month 3, 2 mg QD","−21.24 (−24.28, −18.21) %"
same,"Aβ42 in CSF percent change from baseline, LSmean (SE)","Aβ42; month 3, 2 mg QD",−24.00 (1.277) %
same,"Aβ42 in CSF percent change from baseline, Difference (90% CI) Cmpd 1-Placebo","Aβ42; month 3, 10 mg QD","−61.39 (−64.47, −58.31) %"
same,"Aβ42 in CSF percent change from baseline, LSmean (SE)","Aβ42; month 3, 10 mg QD",−64.15 (1.308) %
same,"Aβ42 in CSF percent change from baseline, Difference (90% CI) Cmpd 1-Placebo","Aβ42; month 3, 35 mg QD","−79.73 (−82.73, −76.73) %"
same,"Aβ42 in CSF percent change from baseline, LSmean (SE)","Aβ42; month 3, 35 mg QD",−82.49 (1.250) %
same,"Aβ42 in CSF percent change from baseline, Difference (90% CI) Cmpd 1-Placebo","Aβ42; month 3, 85 mg QD","−86.62 (−89.76, −83.49) %"
same,"Aβ42 in CSF percent change from baseline, LSmean (SE)","Aβ42; month 3, 85 mg QD",−89.38 (1.348) %
